Assay results published in the supplement of paper PMC6045584.
± gives the standard deviation of the averaged measurements.

How the values were obtained:
LENVATINIB = compound: COc1cc2nccc(Oc3ccc(NC(=O)NC4CC4)c(Cl)c3)c2cc1C(N)=O [LENVATINIB]; test: surviving fraction relative to DMSO-only wells; higher = less growth inhibition; details: exposure time: 5 days
Summary of the method: (§1)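 Surviving fraction was calculated by normalising CellTiter-Glo luminescence to the median of DMSO-only wells. Tumour cell lines in log phase were seeded in 384-well plates at 250–500 cells per well, and 24 hours later were exposed continuously for five days to inhibitors at 0.5, 1, 5, 10, 50, 100, 500 and 1000 nM.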

VORINOSTAT = compound: O=C(CCCCCCC(=O)Nc1ccccc1)NO [VORINOSTAT]; test: as above; details: exposure time: 5 days
Summary of the method: as §1

Test System	surviving fraction (LENVATINIB; 0.5 nM)	surviving fraction (LENVATINIB; 1 nM)	surviving fraction (LENVATINIB; 5 nM)	surviving fraction (LENVATINIB; 10 nM)	surviving fraction (LENVATINIB; 50 nM)	surviving fraction (LENVATINIB; 100 nM)	surviving fraction (LENVATINIB; 500 nM)	surviving fraction (LENVATINIB; 1000 nM)	surviving fraction (VORINOSTAT; 0.5 nM)	surviving fraction (VORINOSTAT; 1 nM)	surviving fraction (VORINOSTAT; 5 nM)	surviving fraction (VORINOSTAT; 10 nM)	surviving fraction (VORINOSTAT; 50 nM)	surviving fraction (VORINOSTAT; 100 nM)	surviving fraction (VORINOSTAT; 500 nM)	surviving fraction (VORINOSTAT; 1000 nM)
DU4475 BREAST	1.02 ± 0.26	1.12 ± 0.21	0.991 ± 0.23	0.994 ± 0.17	0.935 ± 0.22	1.06 ± 0.16	0.912 ± 0.2	0.994 ± 0.26	1.41 ± 0.74	1.08 ± 0.76	1.05 ± 0.56	1.25 ± 0.66	1.07 ± 0.57	0.952 ± 0.38	0.627 ± 0.22	0.431 ± 0.17
MHM BONE	1.033 ± 0.0097	1.01 ± 0.024	1.025 ± 0.0038	1.074 ± 0.0044	1.05 ± 0.033	1.03 ± 0.037	0.981 ± 0.019	0.937 ± 0.05	0.928 ± 0.025	0.9847 ± 0.0087	1.01 ± 0.028	0.981 ± 0.019	1.03 ± 0.011	1 ± 0.019	0.985 ± 0.013	0.843 ± 0.025
HT1080 SOFT TISSUE	1 ± 0.043	1.01 ± 0.051	1 ± 0.033	1.02 ± 0.032	1 ± 0.013	0.978 ± 0.021	1 ± 0.039	0.987 ± 0.026	1.02 ± 0.046	1.02 ± 0.015	1.05 ± 0.039	1.02 ± 0.034	0.951 ± 0.028	0.914 ± 0.017	0.671 ± 0.048	0.418 ± 0.029
MDAMB453 BREAST	1.11 ± 0.035	1.11 ± 0.068	1.12 ± 0.019	1.13 ± 0.043	1.12 ± 0.037	1.15 ± 0.049	0.663 ± 0.016	0.52 ± 0.035	0.998 ± 0.032	1.01 ± 0.079	1.03 ± 0.062	1.05 ± 0.065	1.06 ± 0.038	1.06 ± 0.022	0.785 ± 0.036	0.244 ± 0.0089
NOS1 BONE	1.09 ± 0.012	1.01 ± 0.079	1.24 ± 0.34	0.922 ± 0.074	0.826 ± 0.034	0.703 ± 0.021	0.624 ± 0.087	0.529 ± 0.011	1.01 ± 0.05	0.982 ± 0.17	1.04 ± 0.021	1.03 ± 0.056	1.14 ± 0.15	1.07 ± 0.091	0.713 ± 0.089	0.284 ± 0.0091
HOS BONE	1.03 ± 0.012	1.067 ± 0.0047	1.03 ± 0.028	1.02 ± 0.025	1.06 ± 0.071	1.05 ± 0.047	1.02 ± 0.017	0.946 ± 0.0092	0.957 ± 0.017	1 ± 0.022	0.9643 ± 0.0076	0.989 ± 0.017	1.05 ± 0.019	1.07 ± 0.029	0.948 ± 0.034	0.967 ± 0.021
CAL120 BREAST	0.968 ± 0.014	0.984 ± 0.028	1.01 ± 0.023	1.01 ± 0.024	0.9848 ± 0.0086	0.984 ± 0.028	0.866 ± 0.024	0.753 ± 0.049	0.944 ± 0.017	0.896 ± 0.025	0.922 ± 0.013	0.883 ± 0.036	0.896 ± 0.025	0.78 ± 0.009	0.4962 ± 0.0023	0.248 ± 0.054
MDAMB134 BREAST	1.12 ± 0.079	1.08 ± 0.044	1.16 ± 0.069	1.09 ± 0.011	1.29 ± 0.13	1.32 ± 0.14	0.972 ± 0.15	1.05 ± 0.057	0.938 ± 0.037	0.937 ± 0.17	0.987 ± 0.0099	0.857 ± 0.011	0.935 ± 0.026	0.949 ± 0.16	0.688 ± 0.04	0.781 ± 0.025
LNCAP PROSTATE	1.16 ± 0.031	0.973 ± 0.044	0.904 ± 0.17	0.896 ± 0.1	1.02 ± 0.13	0.924 ± 0.16	0.909 ± 0.12	0.533 ± 0.073	1.11 ± 0.14	0.952 ± 0.22	0.842 ± 0.19	0.861 ± 0.053	0.904 ± 0.15	0.784 ± 0.042	0.361 ± 0.055	0.159 ± 0.016
LM7 BONE	0.974 ± 0.11	0.951 ± 0.066	1.03 ± 0.074	0.973 ± 0.086	1.07 ± 0.12	1.03 ± 0.041	0.939 ± 0.022	0.952 ± 0.11	1.01 ± 0.1	0.999 ± 0.041	1.09 ± 0.059	1.03 ± 0.08	1.11 ± 0.12	1.1 ± 0.04	0.934 ± 0.12	0.8 ± 0.032
SG28 HEADNECK	1.01 ± 0.091	1.06 ± 0.058	1.04 ± 0.011	1.08 ± 0.072	1.09 ± 0.097	0.966 ± 0.069	1.1 ± 0.069	1.08 ± 0.097	1.11 ± 0.14	1.16 ± 0.17	1.066 ± 0.0025	1.09 ± 0.018	1.03 ± 0.073	1.09 ± 0.032	0.998 ± 0.081	0.809 ± 0.11
CME SYNOVIAL	1.28 ± 0.14	1.25 ± 0.12	1.18 ± 0.092	1.17 ± 0.3	1.22 ± 0.076	1.1 ± 0.038	0.847 ± 0.074	0.91 ± 0.029	1.25 ± 0.12	1.15 ± 0.087	1.21 ± 0.061	0.882 ± 0.044	1.28 ± 0.1	1.08 ± 0.043	0.607 ± 0.089	0.383 ± 0.027
MDAMB361 BREAST	0.893 ± 0.098	0.873 ± 0.034	0.959 ± 0.032	0.865 ± 0.035	0.941 ± 0.08	0.978 ± 0.066	0.928 ± 0.063	0.763 ± 0.063	0.809 ± 0.028	0.871 ± 0.097	0.796 ± 0.019	0.825 ± 0.037	0.783 ± 0.096	0.843 ± 0.077	0.596 ± 0.014	0.378 ± 0.015
HCC202 BREAST	1.04 ± 0.13	0.977 ± 0.21	1.1 ± 0.33	1.32 ± 0.17	0.801 ± 0.56	1.15 ± 0.18	0.783 ± 0.6	0.946 ± 0.25	1.19 ± 0.26	1.12 ± 0.13	1.31 ± 0.11	1.12 ± 0.12	0.808 ± 0.14	0.777 ± 0.34	0.476 ± 0.12	0.295 ± 0.049
MCF7 BREAST	0.954 ± 0.061	0.903 ± 0.056	0.954 ± 0.059	0.931 ± 0.076	0.971 ± 0.034	0.978 ± 0.11	0.942 ± 0.03	0.934 ± 0.073	0.854 ± 0.026	0.839 ± 0.033	0.864 ± 0.011	0.781 ± 0.026	0.977 ± 0.034	0.845 ± 0.028	0.742 ± 0.0093	0.648 ± 0.0092
CAL72 BONE	1.14 ± 0.086	1.12 ± 0.046	1.14 ± 0.088	1.12 ± 0.062	1.16 ± 0.069	1.18 ± 0.12	1.01 ± 0.13	0.613 ± 0.051	1.02 ± 0.056	1.09 ± 0.022	1.08 ± 0.02	1.07 ± 0.026	1.08 ± 0.029	1.07 ± 0.018	1.05 ± 0.022	1.06 ± 0.042
HU09 BONE	0.925 ± 0.039	0.985 ± 0.079	0.97 ± 0.014	0.937 ± 0.13	0.649 ± 0.075	0.587 ± 0.021	0.33 ± 0.045	0.288 ± 0.034	0.943 ± 0.054	0.922 ± 0.041	0.931 ± 0.095	0.969 ± 0.053	1.01 ± 0.092	0.968 ± 0.13	0.721 ± 0.072	0.4 ± 0.013
JIMT1 BREAST	0.987 ± 0.026	1.03 ± 0.0053	1.03 ± 0.026	1.03 ± 0.052	1.06 ± 0.068	1.04 ± 0.011	1 ± 0.015	1.08 ± 0.011	0.924 ± 0.0097	0.995 ± 0.017	1.01 ± 0.037	0.986 ± 0.013	1.07 ± 0.027	1.006 ± 0.01	0.686 ± 0.01	0.448 ± 0.037
SG31 HEADNECK	1.04 ± 0.17	1.17 ± 0.15	0.975 ± 0.3	0.977 ± 0.066	0.985 ± 0.12	0.967 ± 0.059	1.24 ± 0.09	1.12 ± 0.2	1.07 ± 0.21	1.05 ± 0.27	1.02 ± 0.078	1.01 ± 0.18	1.08 ± 0.12	1.04 ± 0.042	0.948 ± 0.14	0.63 ± 0.027
JURKAT HAEMATOPOIETIC AND LYMPHOID TISSUE	1.06 ± 0.011	1.08 ± 0.024	1.03 ± 0.035	1.02 ± 0.041	1 ± 0.039	1.02 ± 0.038	1.013 ± 0.009	0.964 ± 0.032	1.1 ± 0.026	1.105 ± 0.01	1.09 ± 0.032	1.05 ± 0.02	1.04 ± 0.013	1.01 ± 0.023	0.696 ± 0.037	0.039 ± 0.001
